Assay results: ChEMBL document CHEMBL2407081, “Discovery of potent, isoform-selective inhibitors of histone deacetylase containing chiral heterocyclic capping groups and a N-(2-aminophenyl)benzamide binding unit” (J Med Chem, 2013)
pIC50: −log10 of the molar value.

Tests used:
[1] = molecular target: Histone deacetylase 3/NCoR1 (Homo sapiens, UniProt O15379); test: Inhibition of recombinant HDAC3-NCoR1 (unknown origin) using MAL as substrate incubated for 3 hrs prior to substrate addition measured after 60 mins by fluorescence plate reader analysis; type: protein-complex assay
[2] = molecular target: Histone deacetylase 1 (Homo sapiens, UniProt Q13547); test: Inhibition of recombinant C-terminal FLAG-tagged HDAC1 (unknown origin) expressed in Escherichia coli BL21 using MAL as substrate incubated for 1 hr prior to substrate addition measured after 60 mins by fluorescence plate reader analysis
[3] = molecular target: T1, Histone deacetylase 8 (Homo sapiens, UniProt Q9BY41); test: Inhibition of recombinant HDAC8 (unknown origin) expressed in Escherichia coli BL21 using MAL as substrate incubated for 15 mins prior to substrate addition measured after 60 mins by fluorescence plate reader analysis
T1 sequence (Q9BY41 whole entry): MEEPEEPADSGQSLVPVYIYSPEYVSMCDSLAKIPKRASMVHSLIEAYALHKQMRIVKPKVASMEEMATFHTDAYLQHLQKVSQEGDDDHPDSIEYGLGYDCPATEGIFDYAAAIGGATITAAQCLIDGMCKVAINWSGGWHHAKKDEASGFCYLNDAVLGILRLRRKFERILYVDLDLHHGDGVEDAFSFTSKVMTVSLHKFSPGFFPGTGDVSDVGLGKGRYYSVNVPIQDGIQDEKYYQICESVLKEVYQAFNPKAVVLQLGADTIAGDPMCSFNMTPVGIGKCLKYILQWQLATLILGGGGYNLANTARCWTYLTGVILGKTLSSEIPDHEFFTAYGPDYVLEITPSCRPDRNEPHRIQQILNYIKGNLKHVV

[4] = molecular target: Histone deacetylase 2 (Homo sapiens, UniProt Q92769); test: Inhibition of recombinant His-tagged HDAC2 (1 to 488) (unknown origin) using MAL as substrate incubated for 3 hrs prior to substrate addition measured after 60 mins by fluorescence plate reader analysis
[5] = molecular target: T2, Protein deacetylase HDAC6 (Homo sapiens, UniProt Q9UBN7); test: Inhibition of recombinant His-tagged HDAC6 (unknown origin) using Fluor-de-Lys SIRT1 as substrate incubated for 3 hrs prior to substrate addition measured after 60 mins by fluorescence plate reader analysis
T2 sequence (Q9UBN7 whole entry): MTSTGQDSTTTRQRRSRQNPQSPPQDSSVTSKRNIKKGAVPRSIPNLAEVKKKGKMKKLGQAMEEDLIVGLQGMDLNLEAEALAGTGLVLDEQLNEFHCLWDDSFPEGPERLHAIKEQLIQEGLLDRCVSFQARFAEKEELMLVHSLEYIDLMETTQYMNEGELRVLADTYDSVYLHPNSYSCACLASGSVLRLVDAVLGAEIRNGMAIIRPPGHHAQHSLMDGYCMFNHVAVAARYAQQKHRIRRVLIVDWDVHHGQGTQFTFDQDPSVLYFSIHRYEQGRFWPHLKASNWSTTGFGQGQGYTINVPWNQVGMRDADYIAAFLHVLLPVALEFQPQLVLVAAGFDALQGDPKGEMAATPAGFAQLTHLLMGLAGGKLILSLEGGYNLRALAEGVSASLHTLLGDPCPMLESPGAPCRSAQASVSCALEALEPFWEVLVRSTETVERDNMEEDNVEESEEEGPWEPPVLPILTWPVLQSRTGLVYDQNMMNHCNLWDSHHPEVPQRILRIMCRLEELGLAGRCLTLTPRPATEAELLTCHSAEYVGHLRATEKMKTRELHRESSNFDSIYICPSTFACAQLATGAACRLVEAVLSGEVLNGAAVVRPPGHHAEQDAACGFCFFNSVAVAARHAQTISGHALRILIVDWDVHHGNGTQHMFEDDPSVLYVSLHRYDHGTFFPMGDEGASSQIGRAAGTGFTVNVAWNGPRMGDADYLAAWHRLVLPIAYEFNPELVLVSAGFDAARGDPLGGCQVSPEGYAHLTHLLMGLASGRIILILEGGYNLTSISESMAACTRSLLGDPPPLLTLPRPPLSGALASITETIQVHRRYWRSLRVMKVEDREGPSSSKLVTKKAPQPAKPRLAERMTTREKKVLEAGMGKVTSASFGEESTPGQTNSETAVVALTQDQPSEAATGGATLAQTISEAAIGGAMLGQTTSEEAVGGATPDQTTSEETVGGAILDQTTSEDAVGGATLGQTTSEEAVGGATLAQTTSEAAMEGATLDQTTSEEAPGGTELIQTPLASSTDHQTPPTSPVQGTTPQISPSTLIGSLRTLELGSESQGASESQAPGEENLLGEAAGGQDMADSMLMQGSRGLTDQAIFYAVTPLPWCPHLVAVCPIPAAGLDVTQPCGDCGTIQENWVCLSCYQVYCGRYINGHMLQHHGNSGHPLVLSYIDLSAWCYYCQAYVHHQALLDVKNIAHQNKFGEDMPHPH

[6] = system: MCF7; test: Cytotoxicity against human MCF7 cells assessed as growth inhibition by measuring cellular ATP level after 72 hrs by cell-titer glo assay; type: functional, cell-based; conditions: MCF7, 72 h
[7] = system: A549; test: Cytotoxicity against human A549 cells assessed as growth inhibition by measuring cellular ATP level after 72 hrs by cell-titer glo assay; type: functional, cell-based; conditions: A549, 72 h
[8] = system: DU-145; test: Cytotoxicity against human DU145 cells assessed as growth inhibition by measuring cellular ATP level after 72 hrs by cell-titer glo assay; type: functional, cell-based; conditions: DU-145, 72 h
[9] = system: HCT-116; test: Cytotoxicity against human HCT116 cells assessed as growth inhibition by measuring cellular ATP level after 72 hrs by cell-titer glo assay; type: functional, cell-based; conditions: HCT-116, 72 h

Sequence of Histone deacetylase 3/NCoR1 (O15379 whole entry): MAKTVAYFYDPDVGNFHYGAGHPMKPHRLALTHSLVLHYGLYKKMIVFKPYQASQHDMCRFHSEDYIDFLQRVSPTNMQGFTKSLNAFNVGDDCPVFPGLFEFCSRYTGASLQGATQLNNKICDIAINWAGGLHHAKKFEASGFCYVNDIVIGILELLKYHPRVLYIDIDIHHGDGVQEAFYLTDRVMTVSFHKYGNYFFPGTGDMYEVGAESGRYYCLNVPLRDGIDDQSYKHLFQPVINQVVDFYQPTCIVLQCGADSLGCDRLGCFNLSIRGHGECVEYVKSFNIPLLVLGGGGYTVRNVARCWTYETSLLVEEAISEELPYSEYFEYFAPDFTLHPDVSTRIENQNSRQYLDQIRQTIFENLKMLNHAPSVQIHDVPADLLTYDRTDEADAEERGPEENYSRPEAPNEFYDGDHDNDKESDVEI
Sequence of Histone deacetylase 3/NCoR1 (O75376 whole entry, further chain): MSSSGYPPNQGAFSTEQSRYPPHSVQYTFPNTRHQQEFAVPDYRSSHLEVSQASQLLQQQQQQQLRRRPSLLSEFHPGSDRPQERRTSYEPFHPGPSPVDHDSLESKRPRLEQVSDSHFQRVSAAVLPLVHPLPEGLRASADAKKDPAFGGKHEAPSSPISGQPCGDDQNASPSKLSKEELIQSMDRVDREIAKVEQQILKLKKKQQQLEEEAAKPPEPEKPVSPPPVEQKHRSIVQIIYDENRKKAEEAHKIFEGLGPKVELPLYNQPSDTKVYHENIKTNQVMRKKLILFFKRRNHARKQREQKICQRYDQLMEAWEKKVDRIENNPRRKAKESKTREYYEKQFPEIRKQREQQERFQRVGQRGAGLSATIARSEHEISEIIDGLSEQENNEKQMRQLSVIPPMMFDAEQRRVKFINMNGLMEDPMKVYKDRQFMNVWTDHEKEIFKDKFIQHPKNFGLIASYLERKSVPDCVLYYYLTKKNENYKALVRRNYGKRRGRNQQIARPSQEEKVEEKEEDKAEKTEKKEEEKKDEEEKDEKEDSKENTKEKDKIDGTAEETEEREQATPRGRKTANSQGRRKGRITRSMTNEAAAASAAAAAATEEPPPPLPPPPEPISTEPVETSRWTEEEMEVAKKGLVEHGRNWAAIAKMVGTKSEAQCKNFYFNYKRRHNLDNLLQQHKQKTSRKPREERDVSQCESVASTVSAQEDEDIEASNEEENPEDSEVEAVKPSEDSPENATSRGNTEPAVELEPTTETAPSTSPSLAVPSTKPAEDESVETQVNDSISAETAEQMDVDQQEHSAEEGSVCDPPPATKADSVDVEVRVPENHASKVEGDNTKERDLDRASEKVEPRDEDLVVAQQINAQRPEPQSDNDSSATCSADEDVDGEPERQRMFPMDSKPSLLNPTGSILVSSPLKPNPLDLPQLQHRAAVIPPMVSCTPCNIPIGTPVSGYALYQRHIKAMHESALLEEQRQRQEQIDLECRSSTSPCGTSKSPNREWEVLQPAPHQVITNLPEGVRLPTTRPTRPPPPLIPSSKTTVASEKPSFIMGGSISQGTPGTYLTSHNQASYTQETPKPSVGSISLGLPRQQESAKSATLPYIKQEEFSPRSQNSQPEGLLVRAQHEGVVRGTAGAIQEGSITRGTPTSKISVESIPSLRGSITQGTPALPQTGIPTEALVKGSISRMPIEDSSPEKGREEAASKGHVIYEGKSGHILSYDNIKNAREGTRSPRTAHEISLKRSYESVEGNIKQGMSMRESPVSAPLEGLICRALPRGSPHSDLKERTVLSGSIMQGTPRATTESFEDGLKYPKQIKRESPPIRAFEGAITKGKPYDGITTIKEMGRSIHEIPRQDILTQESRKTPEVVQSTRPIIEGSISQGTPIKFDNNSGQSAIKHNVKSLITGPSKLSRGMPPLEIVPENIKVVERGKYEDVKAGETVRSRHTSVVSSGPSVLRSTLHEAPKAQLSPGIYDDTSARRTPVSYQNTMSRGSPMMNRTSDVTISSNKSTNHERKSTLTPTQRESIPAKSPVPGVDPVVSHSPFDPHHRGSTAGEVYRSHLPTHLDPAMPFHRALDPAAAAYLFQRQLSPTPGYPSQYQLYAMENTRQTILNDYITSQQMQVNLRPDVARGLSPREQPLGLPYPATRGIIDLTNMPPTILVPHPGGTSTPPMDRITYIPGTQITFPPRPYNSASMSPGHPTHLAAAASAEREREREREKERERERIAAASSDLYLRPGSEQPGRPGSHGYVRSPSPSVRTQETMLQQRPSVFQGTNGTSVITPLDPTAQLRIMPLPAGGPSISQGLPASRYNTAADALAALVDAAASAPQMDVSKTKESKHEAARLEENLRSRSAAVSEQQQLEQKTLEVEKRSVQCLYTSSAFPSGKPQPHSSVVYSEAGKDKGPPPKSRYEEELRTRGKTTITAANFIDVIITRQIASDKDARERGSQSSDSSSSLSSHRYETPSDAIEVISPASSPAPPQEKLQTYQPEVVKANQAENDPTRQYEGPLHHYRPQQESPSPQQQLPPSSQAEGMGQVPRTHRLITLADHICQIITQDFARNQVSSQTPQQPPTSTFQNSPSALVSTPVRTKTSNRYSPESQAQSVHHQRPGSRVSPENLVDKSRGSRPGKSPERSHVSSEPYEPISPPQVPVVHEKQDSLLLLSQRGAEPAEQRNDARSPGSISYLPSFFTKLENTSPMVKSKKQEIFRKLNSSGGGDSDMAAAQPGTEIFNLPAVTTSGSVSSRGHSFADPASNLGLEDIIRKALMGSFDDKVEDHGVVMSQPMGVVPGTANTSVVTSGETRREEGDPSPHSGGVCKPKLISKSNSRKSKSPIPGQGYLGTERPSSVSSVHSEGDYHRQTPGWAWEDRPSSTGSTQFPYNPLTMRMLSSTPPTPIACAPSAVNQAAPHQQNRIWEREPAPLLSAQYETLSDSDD
Sequence of Histone deacetylase 2 (Q92769 whole entry): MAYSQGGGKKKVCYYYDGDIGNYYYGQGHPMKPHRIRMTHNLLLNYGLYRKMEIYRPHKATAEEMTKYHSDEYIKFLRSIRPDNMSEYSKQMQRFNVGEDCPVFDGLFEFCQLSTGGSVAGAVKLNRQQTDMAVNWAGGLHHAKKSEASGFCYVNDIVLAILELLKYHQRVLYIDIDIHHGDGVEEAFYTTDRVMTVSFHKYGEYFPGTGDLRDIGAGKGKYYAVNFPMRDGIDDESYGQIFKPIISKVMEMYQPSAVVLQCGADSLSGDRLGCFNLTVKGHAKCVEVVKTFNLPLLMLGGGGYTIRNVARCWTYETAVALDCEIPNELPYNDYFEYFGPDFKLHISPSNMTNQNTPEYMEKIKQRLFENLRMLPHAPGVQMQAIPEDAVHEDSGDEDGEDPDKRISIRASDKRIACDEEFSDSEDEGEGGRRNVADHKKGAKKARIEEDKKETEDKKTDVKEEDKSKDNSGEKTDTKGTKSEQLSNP
Sequence of Histone deacetylase 1 (Q13547 whole entry): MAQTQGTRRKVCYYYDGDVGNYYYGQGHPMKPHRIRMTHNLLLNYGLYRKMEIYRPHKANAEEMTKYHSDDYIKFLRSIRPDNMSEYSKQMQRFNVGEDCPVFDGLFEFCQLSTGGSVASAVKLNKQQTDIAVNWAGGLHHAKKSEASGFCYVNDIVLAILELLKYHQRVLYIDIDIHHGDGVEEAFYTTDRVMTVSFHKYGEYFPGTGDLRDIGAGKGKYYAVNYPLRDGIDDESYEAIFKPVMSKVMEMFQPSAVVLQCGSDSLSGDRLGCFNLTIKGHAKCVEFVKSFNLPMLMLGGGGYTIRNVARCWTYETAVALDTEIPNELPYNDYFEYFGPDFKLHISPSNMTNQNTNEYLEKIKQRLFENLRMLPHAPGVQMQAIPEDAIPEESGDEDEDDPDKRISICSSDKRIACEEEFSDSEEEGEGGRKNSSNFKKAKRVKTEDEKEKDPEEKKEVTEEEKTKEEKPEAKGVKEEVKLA

Row | SMILES | pIC50 [1] | pIC50 [2] | pIC50 [3] | pIC50 [4] | pIC50 [5] | pIC50 [6] | pIC50 [7] | pIC50 [8] | pIC50 [9]
1 | Nc1ccccc1NC(=O)c1ccc(CN=C2NC[C@H](c3ccccc3)S2)cc1 | 7.92 | 6.26 | 5.64 | 7.09 | – | – | – | – | –
2 | Nc1cc2ccccc2cc1NC(=O)c1ccc(CNc2nccc(-c3cccnc3)n2)cc1 | 6.20 | – | < 4.70 | < 4.70 | < 4.70 | – | – | – | –
3 | O=C(CCCCCCC(=O)Nc1ccccc1)NO [VORINOSTAT] | – | – | – | – | – | 5.64 | 5.64 | – | –
4 | Nc1ccccc1NC(=O)c1ccc(CSC2=N[C@@H](Cc3c[nH]c4ccccc34)CS2)cc1 | 6.05 | – | < 4.70 | 6.04 | < 4.70 | 5.00 | 5.02 | 5.55 | 5.44
5 | Nc1ccccc1NC(=O)c1ccc(CSC2=N[C@@H](Cc3ccccc3)CS2)cc1 | 6.29 | – | < 4.70 | 6.24 | < 4.70 | – | – | – | –
6 | Nc1ccccc1NC(=O)c1ccc(CNC2=NC[C@@H](c3ccccc3)S2)cc1 | 7.64 | – | 5.85 | 6.95 | – | – | – | – | –
7 | Nc1cc(CO)ccc1NC(=O)c1ccc(CNc2nccc(-c3cccnc3)n2)cc1 | < 4.70 | – | < 4.70 | < 4.70 | < 4.70 | – | – | – | –
8 | Nc1ccccc1NC(=O)c1ccc(CNC2=N[C@@H](c3ccc(O)cc3)CS2)cc1 | 7.80 | 6.74 | 4.82 | 7.36 | – | – | – | – | –
9 | Nc1ccccc1NC(=O)c1ccc(CNC2=NC(=O)C(Cc3ccccc3)N2)cc1 (racemic) | 7.52 | – | 4.89 | 7.18 | < 4.70 | < 4.30 | < 4.30 | < 4.30 | 4.78
10 | Nc1ccccc1NC(=O)c1ccc(CNC2=NC(=O)C(Cc3c[nH]c4ccccc34)N2)cc1 (racemic) | 6.98 | 6.72 | < 4.70 | 7.11 | < 4.70 | – | – | – | –
11 | Nc1ccccc1NC(=O)c1ccc(CSC2=N[C@@H](c3ccccc3)CS2)cc1 | 7.20 | – | 5.29 | 6.36 | < 4.70 | – | – | – | –
12 | CC(=O)N1C(NCc2ccc(C(=O)Nc3ccccc3N)cc2)=NC(=O)C1Cc1c[nH]c2ccccc12 (racemic) | 7.15 | – | 4.61 | 6.94 | < 4.70 | – | – | – | –
13 | Nc1cc(-c2ccccc2)ccc1NC(=O)c1ccc(CNc2nccc(-c3cccnc3)n2)cc1 | < 4.70 | – | < 4.70 | 4.78 | < 4.70 | – | – | – | –
14 | Nc1cc(C(=O)OCc2ccccc2)ccc1NC(=O)c1ccc(CNc2nccc(-c3cccnc3)n2)cc1 | < 4.70 | – | < 4.70 | < 4.70 | < 4.70 | – | – | – | –
15 | Nc1cc(C(=O)O)ccc1NC(=O)c1ccc(CNc2nccc(-c3cccnc3)n2)cc1 | < 4.70 | – | < 4.70 | < 4.70 | < 4.70 | – | – | – | –
16 | COc1ccc(NC(=O)c2ccc(CNc3nccc(-c4cccnc4)n3)cc2)c(N)c1 | 6.95 | – | < 4.70 | 6.61 | < 4.70 | – | – | – | –
17 | Nc1cc(Br)ccc1NC(=O)c1ccc(CNc2nccc(-c3cccnc3)n2)cc1 | 5.33 | – | < 4.70 | < 4.70 | < 4.70 | – | – | – | –
18 | CC(=O)N1C(NCc2ccc(C(=O)Nc3ccccc3N)cc2)=NC(=O)C1Cc1ccccc1 (racemic) | 7.08 | – | 4.64 | 6.59 | < 4.70 | – | – | – | –
19 | Nc1ccccc1NC(=O)c1ccc(CNC2=N[C@@H](Cc3ccccc3)CS2)cc1 | 7.28 | 6.04 | 4.46 | 6.98 | < 4.70 | 5.51 | 5.20 | 5.26 | 5.71
20 | Nc1ccccc1NC(=O)c1ccc(CN=C2N[C@H](Cc3ccccc3)CS2)cc1 | 7.44 | 6.39 | 4.90 | 7.09 | < 4.70 | – | – | – | –
21 | Nc1ccccc1NC(=O)c1ccc(CNC2=N[C@H](c3ccccc3)[C@@H](c3ccccc3)S2)cc1 | 6.54 | – | 4.83 | 6.37 | – | – | – | – | –
22 | CC(C)(C)[Si](C)(C)OCc1ccc(NC(=O)c2ccc(CNc3nccc(-c4cccnc4)n3)cc2)c(N)c1 | < 4.70 | – | < 4.70 | < 4.70 | < 4.70 | – | – | – | –
23 | Nc1cc(O)ccc1NC(=O)c1ccc(CNc2nccc(-c3cccnc3)n2)cc1 | 6.14 | – | < 4.70 | 5.84 | < 4.70 | – | – | – | –
24 | CC(C)(C)OC(=O)N1C(NCc2ccc(C(=O)Nc3ccccc3N)cc2)=NC(=O)C1Cc1c[nH]c2ccccc12 (racemic) | 7.40 | 6.30 | 4.57 | 7.32 | < 4.70 | – | – | – | –
25 | Nc1ccccc1NC(=O)c1ccc(CN=C2N[C@@H](c3ccccc3)[C@H](c3ccccc3)S2)cc1 | 6.41 | – | 4.90 | 6.27 | – | – | – | – | –
26 | Nc1ccccc1NC(=O)c1ccc(CN=C2N[C@H](c3ccccc3)CS2)cc1 | 7.10 | 6.43 | 4.97 | 7.25 | < 4.70 | – | – | – | –
